Measured values taken from paper PMC9684134, “In vitro biochemical assessment of mixture effects of two endocrine disruptors on INS-1 cells” (Scientific Reports, 2022).
Read-outs that look alike come from different tables or passages of the source.

Legend:
INS-1 cells [1] = experiment: Glucose-galactose cytotoxicity assay (MTT); details: for IC50: Rattus norvegicus, INS1, 48 h
Method: Sub-culturing was in ratio 4:3. Cell density was 15,000 cells/well and treated with 200 µL of the test solution that was solubilized in glucose-free RPMI medium supplemented with 5 mM glucose or 5 mM galactose. The cells were incubated further for 48 h. The spent medium was replaced with 100 µL glucose in RPMI medium. 2,4-dinitrophenol served as positive control. The cells were finally loaded with MTT as in section “Cell viability assay” but incubation took 120 min.

INS-1 cells [2] = experiment: Glucose stimulated calcium influx (Fluo-4); format: cell-based, rat; details: 20 mM glucose stimulation; for Glucose stimulated intracellular calcium flux compared with the Blank: positive controls; for Intracellular calcium levels (summary): Table 3 summary, 24 h incubation
Method: Fluo-4 dye is specific for intracellular Ca^2+ concentration. On binding calcium, the green fluorescence intensity increases by more than 100 folds (excitation/emission 494/[…]). Incubation was for 24 h. Staining solution was prepared by adding 20 µL Flou-4 stock solution (1 mM in DMSO) and 2 µL Hoechst solution to 10 mL of PBS. After staining, incubation was done for 30 min at 37 °C. The stain solution was removed and replaced with 50 µL PBS. Incubation was further carried out at room temperature for 20 min. Difference in fluorescence intensity between wells containing glucose and those without glucose represents calcium influx in response to glucose. Just prior to image acquisition, 20 mM glucose was added to four of the eight replicate wells and incubated at room temperature for 10 min. Image acquisition and data analyses were done as usual. Filter sets appropriate for DAPI and FITC were also used. Diazoxide and Glibenclamide were used as the positive controls.

INS-1 cells [3] = experiment: Oxidative stress: reduced glutathione by ThiolTracker Violet staining; format: cell-based, rat; details: 48 h; for Glutathione levels (oxidative stress summary): Table 3 summary, low and high concentration
Method: (§1) The spent medium in section “Treatment of INS-1 cells” was removed and 50 µL CellROX staining solution was added to each well according to the manufacturer’s instructions and incubated at 37 °C for 30 min. Images from nine sites per well were acquired using filter sets appropriate for DAPI (4′, 6-diamidino-2-phenylindole) and TRITC (tetramethylrhodamine-isothiocyanate) which were the fluorophors. Image acquisition was done on ImageXpress Micro XLS and analyzed using the Multi-Wavelength Scoring software (Molecular Devices). In another experiment 50 µL ThiolTracker Violet staining solution was put in each well and incubated at 37 °C for 20 min. Images from nine sites per well were acquired using filter sets appropriate for DAPI and CY5 (amine reactive fluorescent dye). Image acquisition and data analysis were as done for the CellROX orange reagent. Excitation/Emission wavelength was at 545/565 nm.

INS-1 cells [4] = experiment: Mitochondrial mass (MitoTracker Green staining); format: cell-based, rat; details: 48 h; for Mitochondrial mass (summary): Table 3 summary, all concentrations
Method: Staining solution consisted of 10 mL of PBS to which was added 1 µL MitoTracker Green (MTG) stock (1 mM in DMSO) and 2 µL Hoechst solution (10 mg/mL in DMSO). Spent medium was removed and 50 µL staining solution added to each well (96 wells) followed by incubation at 37 °C for 20 min.

INS-1 cells [5] = format: cell-based, rat; details: for Annexin PI: mode of cell death (summary): Table 3 summary
Method: The treated cells were sub-cultured at 4:3. Annexin V-FITC staining assay was performed as recommended by the manufacturer. Melphalan (Mel) and Etoposide (Etop) served as the positive controls. Incubation lasted 48 h. The spent medium was removed and 50 µL PI staining solution was in each well and incubated for 15 min at 37 °C followed by image acquisition and data analysis as in previous experiments. Images from nine sites per well were acquired using filter sets appropriate for DAPI, FITC and Texas red dyes.

INS-1 cells [6] = experiment: Mitochondrial membrane potential (TMRE staining); details: 48 h
Method: (§2) TMRE is a cell permeable cationic dye that accumulates in the mitochondrial matrix according to mitochondrial membrane potential (ΔψM). Staining solution was prepared by adding 5 mL PBS, 50 µL TMRE working solution and 2 µL Hoechst 33342 solution to 5 mL of RPMI. The spent medium was removed and 50 µL staining solution was put in each well and incubated for 30 min at 37 °C. Image acquisition and data analysis were done as indicated.

INS-1 cells [7] = experiment: Oxidative stress: ROS by CellROX orange staining; format: cell-based, rat; details: Table 3 summary, low and high concentration, 48 h
Method: as §1

[8] = Cell viability assay (MTT); format: cell-based; details: rat
Method: INS-1 cells were routinely grown at 5% CO2, 95% air at 37 °C in RPMI-1640 containing 11.1 mM glucose and supplemented with 10% foetal calf serum (FCS), 1 mM pyruvate, 10 mM 4-(2-hydroxyethyl)-1-piperazine ethane sulphonic acid (HEPES), 50 µM 2-mercaptoethanol, 100 U penicillin/mL and 100 µg streptomycin/mL. Sub-confluent cultures were trypsinized to dislodge the cells and sub-cultured at a ratio of 1:3 or 1:0.75 in other experiments. INS-1 cells were seeded into a 96-well plate at densities of 10 000, 15 000 or 30,000 cells/well. They were allowed to attach at 37 °C overnight.
The cells were incubated for 48 h with test compounds containing 20 µM or 30 µM 4-tOP and 8 µM or 12.5 µM TCS. Combination treatments (4-tOP + TCS) were 12.5 µM or 25 µM at 1:1 ratio.
Cell viability was assessed by a principle of enzymatic reduction of 3-[4, 5-dimethylthiazole-2-yl]-2, 5-diphenyltetrazolium bromide (MTT) to formazan. The treated cells respectively were loaded with 20 µL 0.5 mg/mL MTT and incubated at 37 °C for 3 h. […] The absorbance of the purple-coloured formazan was measured at 540 nm on microplate reader. IC50, (the median inhibitory concentration) was calculated with GraphPad Prism software. Data were expressed as a percentage of control.
Results were expressed as means ± SD from at least three replicate measurements. The difference between means was analyzed with ANOVA, α value = 0.05. […]

[9] = tested on: caspase 3 activation in INS-1 cells; experiment: Caspase-3 activation assay; format: cell-based, rat; details: 48 h
Method: Additional 100 µL test compounds were solubilized in the medium and incubated for 48 h. The spent medium was replaced with 100 µL of fix solution (4% formaldehyde in phosphate-buffered saline (PBS) and was fixed overnight; the cells were permeabilized with ice cold methanol, then washed with PBS and blocked using 1% BSA followed by incubation with the primary antibody at 1:200 dilution in blocking buffer for 2 h. The excess antibody was removed by washing with blocking buffer. Incubation was thereafter carried out with secondary antibody (FITC labelled) for 30 min and later washed with blocking buffer to remove excess antibody. Images from nine sites per well were acquired using filter sets appropriate for DAPI and FITC. Image analysis was done as in previous experiments.

INS-1 cells [10] = experiment: Glucose uptake assay (glucose oxidase); format: cell-based, rat; details: Table 3 summary, low and high concentration, 48 h
Method: Glucose uptake was determined in INS-1 cells by monitoring the levels of glucose remaining in the culture medium after a selected treatment period. The cell density was 30 000 per well; one row was without cells to serve as maximum glucose content. Spent medium was removed and the cells were treated with 100 µL of the test compounds at concentrations indicated in section “Treatment of INS-1 cells”. The cells were incubated for a further 48 h and 5µL spent culture medium was thereafter transferred to a new plate of 96 wells and 200 µL glucose oxidase reagent added. Incubation was at 37 °C for 20 min and absorbance was read at 520 nm. Glucose uptake was obtained as the difference in glucose concentration between wells without cells and those with cells and respective treatments.

HepG2 human liver cells = tested on: HepG2 human liver cells; parameters: method as in PMID 27459410; details: cited from earlier work
[11] = parameters: method as in PMID 9894786; details: Ca2+-dependent binding to phosphatidylserine; cited from earlier work
INS-1 cells [12] = tested on: INS-1 cells
Method: as §2

[13] = high concentration (12.5 µM TCS, 30 µM 4-tOP, 25 µM Mix), 48 h
[14] = low concentration (8 µM TCS, 20 µM 4-tOP, 12.5 µM Mix), 48 h

Compound: O=[N+]([O-])c1ccc(O)c([N+](=O)[O-])c1 [2,4-Dinitrophenol, 2,4-dinitrophenol, reference compound]
- IC50 (INS-1 cells [1]; read-out: IC50 Galactose): 24.5 µM
- IC50 (INS-1 cells [1]; read-out: IC50 Glucose): 46 µM

Compound: CC1=NS(=O)(=O)c2cc(Cl)ccc2N1 [Diazoxide, reference compound]
- Glucose stimulated intracellular calcium flux compared with the Blank (INS-1 cells [2]): significantly increased intracellular calcium flux

Compound: N[C@@H](Cc1ccc(N(CCCl)CCCl)cc1)C(=O)O [Melphalan, reference compound]
- GSH compared with the Blank (INS-1 cells [3]; positive control 40 µM): significant reduction of GSH
- Mitochondrial mass relative to the Blank (INS-1 cells [4]; positive control 40 µM): significantly increased mitochondrial mass
- Proportion of cells died by apoptosis (INS-1 cells [5]; positive control 40 µM, 48 h): 15.7%
- Proportion of live cells (INS-1 cells [5]; positive control 40 µM, 48 h): 34.5%
- Mitochondrial membrane potential ΔΨM (MMP) compared to the Blank (INS-1 cells [6]; positive control 40 µM): Significant loss of mitochondrial membrane potential

Compound: Oc1cc(Cl)ccc1Oc1ccc(Cl)cc1Cl [Triclosan]
- Glutathione levels (oxidative stress summary) (INS-1 cells [3]): Decreased glutathione levels corroborated ROS production
- GSH compared with the Blank (INS-1 cells [3]; high concentration (12.5 µM TCS)): significant reduction of GSH
- ROS (oxidative stress summary) (INS-1 cells [7]): Dose dependent increase in ROS but variation high hampering statistical significance
- Intracellular calcium levels (summary) (INS-1 cells [2]): The reduction in glucose stimulated intracellular calcium flux was not substantial
- IC50 (INS-1 cells [1]; read-out: IC50 Galactose): 8.23 µM
- IC50 (INS-1 cells [1]; read-out: IC50 Glucose): 11.7 µM
- Glucose-galactose differential cytotoxicity (summary) (INS-1 cells [1]; Table 3 summary): Increased cytotoxicity in galactose medium indicative of potential mitochondrial toxicity
- IC50 at 48 h ([8]; INS-1 cells, MTT, 48 h, read-out: IC50 for cytotoxicity against INS-1 cells): 12.7 µM
- Caspase 3 activation compared with the Blank ([9]; test substances): Increase in caspase 3 activation not substantial
- Glucose uptake (summary) (INS-1 cells [10]): Decreased glucose consumption at high concentration, increase at low concentration but not substantial compared with Blank
- Mitochondrial mass (summary) (INS-1 cells [4]): No substantial change in mitochondrial content at all the concentrations relative to the untreated cells
- IC50 (HepG2 human liver cells): 24.5 µM
- Annexin PI: mode of cell death (summary) (INS-1 cells [5]): TCS induced cell death by apoptosis
- Proportion of cells died by apoptosis (INS-1 cells [5]; high concentration (12.5 µM TCS, 25 µM Mix), 48 h): 16.6%
- Proportion of live cells (INS-1 cells [5]; [13]): 43.7%
- Proportion of live cells (INS-1 cells [5]; [14]): 81.2%
- Mitochondrial membrane potential MMP (summary) (INS-1 cells [6]; Table 3 summary): Significant decrease in MMP at the high concentration. only
- Mitochondrial membrane potential ΔΨM (MMP) compared to the Blank (INS-1 cells [6]; high concentration (12.5 µM TCS, 25 µM Mix)): Significant loss of mitochondrial membrane potential

Compound: Annexin V: 35 kDa Ca2+-dependent phospholipid binding protein used to detect phosphatidylserine
- Kd [11]: 0.007 µM

Compound: CC(C)(C)CC(C)(C)c1ccc(O)cc1 [4-tert-Octylphenol]
- Glutathione levels (oxidative stress summary) (INS-1 cells [3]): Decrease glutathione levels corroborated ROS production
- ROS (oxidative stress summary) (INS-1 cells [7]): Dose dependent increase in ROS but variation high hampering statistical significance
- Intracellular calcium levels (summary) (INS-1 cells [2]): No significant changes in glucose stimulated intracellular calcium levels
- IC50 (INS-1 cells [1]; read-out: IC50 Galactose): 34.5 µM
- IC50 (INS-1 cells [1]; read-out: IC50 Glucose): 33.4 µM
- Glucose-galactose differential cytotoxicity (summary) (INS-1 cells [1]; rat, 48 h): Higher IC50 in galactose than in glucose
- IC50 at 48 h [8]: 32.5 µM
- Caspase 3 activation compared with the Blank ([9]; test substances): Increase in caspase 3 activation not substantial
- Glucose uptake (summary) (INS-1 cells [10]): Consumption pattern as with T. No significant change in glucose consumption
- Mitochondrial mass (summary) (INS-1 cells [4]): No substantial change in mitochondrial content at all concentrations relative to the untreated cells
- Mitochondrial membrane potential MMP (summary) (INS-1 cells [12]): The increase in MMP was not substantial
- Induction of apoptosis compared with the Blank (INS-1 cells [5]; 20 µM or 30 µM, 48 h): failed to significantly induce apoptosis
- Annexin PI: mode of cell death (summary) (INS-1 cells [5]): Cell death by 4-tOP was by necrosis
- Proportion of live cells (INS-1 cells [5]; [13]): 73.8%
- Cell death by necrosis compared with the Blank (INS-1 cells [5]; high concentration (30 µM 4-tOP), 48 h): significantly underwent necrosis
- Proportion of live cells (INS-1 cells [5]; [14]): 81.4%

Compound: COc1cc([C@@H]2c3cc4c(cc3[C@@H](O[C@@H]3O[C@@H]5CO[C@@H](C)O[C@H]5[C@H](O)[C@H]3O)[C@H]3COC(=O)[C@H]23)OCO4)cc(OC)c1O [Etoposide, reference compound]
- GSH compared with the Blank (INS-1 cells [3]; positive control 40 µM): significant reduction of GSH
- Caspase 3 activation compared with the Blank ([9]; positive control 40 µM): significant increases in caspase 3 activation
- Proportion of cells died by apoptosis (INS-1 cells [5]; positive control 40 µM, 48 h): 17.4%
- Proportion of live cells (INS-1 cells [5]; positive control 40 µM, 48 h): 42.5%

Compound: COc1ccc(Cl)cc1C(=O)NCCc1ccc(S(=O)(=O)NC(=O)NC2CCCCC2)cc1 [Glibenclamide, reference compound]
- Glucose stimulated intracellular calcium flux compared with the Blank (INS-1 cells [2]): significantly increased intracellular calcium flux
